Values joined by “and” are separate entries in the source; they are usually repeats but may differ in a detail not shown here. Equal entries are not always repeated. Blank lines part the entries; values can stand above or below the compound they belong to.
Legend:
Acetylcholinesterase = Acetylcholinesterase (Homo sapiens, UniProt P22303); assay: Inhibition of AChE (unknown origin)
[1] = Inhibition of NMDA receptor (unknown origin); design: species or system Homo sapiens
Cholinesterase = Cholinesterase (Homo sapiens, UniProt P06276); assay: Inhibition of BuChE (unknown origin)
Cholinesterase, sequence (P06276 whole entry): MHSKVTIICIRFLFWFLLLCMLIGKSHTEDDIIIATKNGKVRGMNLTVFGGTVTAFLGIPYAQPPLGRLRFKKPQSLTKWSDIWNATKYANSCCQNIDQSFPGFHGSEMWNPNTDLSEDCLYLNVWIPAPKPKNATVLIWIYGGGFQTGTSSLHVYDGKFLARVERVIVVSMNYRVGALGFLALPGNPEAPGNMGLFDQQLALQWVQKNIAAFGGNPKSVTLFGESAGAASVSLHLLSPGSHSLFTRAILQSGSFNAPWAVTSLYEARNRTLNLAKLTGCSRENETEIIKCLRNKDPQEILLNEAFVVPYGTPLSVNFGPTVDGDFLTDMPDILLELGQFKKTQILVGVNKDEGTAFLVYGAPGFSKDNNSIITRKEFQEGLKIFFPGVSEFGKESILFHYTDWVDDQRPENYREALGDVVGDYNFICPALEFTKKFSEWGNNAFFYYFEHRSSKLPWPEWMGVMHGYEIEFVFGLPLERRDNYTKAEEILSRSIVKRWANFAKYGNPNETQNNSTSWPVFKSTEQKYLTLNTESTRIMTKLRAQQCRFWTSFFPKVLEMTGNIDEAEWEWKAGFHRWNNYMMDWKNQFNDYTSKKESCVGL

[2] = biological target: 5-hydroxytryptamine receptor 2A (Rattus norvegicus, UniProt P14842); assay: Displacement of [3H]-ketanserin from rat 5-HT2A expressed in mouse NIH/3T3 cells assessed as inhibition constant by Cheng-Prusoff equation analysis; format: cell-based
5-hydroxytryptamine receptor 2A, sequence (P14842 whole entry): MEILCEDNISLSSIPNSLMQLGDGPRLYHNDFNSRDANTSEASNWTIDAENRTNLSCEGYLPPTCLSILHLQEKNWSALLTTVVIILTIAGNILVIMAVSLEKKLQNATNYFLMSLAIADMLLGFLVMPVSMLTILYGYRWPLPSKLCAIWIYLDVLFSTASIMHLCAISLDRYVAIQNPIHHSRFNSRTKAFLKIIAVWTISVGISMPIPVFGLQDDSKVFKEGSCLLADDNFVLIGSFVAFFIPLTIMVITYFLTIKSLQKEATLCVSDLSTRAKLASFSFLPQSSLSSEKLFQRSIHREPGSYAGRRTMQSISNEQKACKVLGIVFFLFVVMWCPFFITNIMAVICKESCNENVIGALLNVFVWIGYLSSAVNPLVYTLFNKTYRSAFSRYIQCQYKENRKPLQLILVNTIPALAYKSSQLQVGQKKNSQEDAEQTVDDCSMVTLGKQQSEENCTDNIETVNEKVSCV

Histone deacetylase = assay: Inhibition of HDAC (unknown origin); format: protein assay, Homo sapiens
[3] = biological target: cGMP-specific 3',5'-cyclic phosphodiesterase (Homo sapiens, UniProt O76074); assay: Inhibition of PDE5 (unknown origin)
[4] = biological target: T1, Amine oxidase [flavin-containing] B (Homo sapiens, UniProt P27338); assay: Inhibition of MAO-B (unknown origin)
T1 sequence (P27338 whole entry): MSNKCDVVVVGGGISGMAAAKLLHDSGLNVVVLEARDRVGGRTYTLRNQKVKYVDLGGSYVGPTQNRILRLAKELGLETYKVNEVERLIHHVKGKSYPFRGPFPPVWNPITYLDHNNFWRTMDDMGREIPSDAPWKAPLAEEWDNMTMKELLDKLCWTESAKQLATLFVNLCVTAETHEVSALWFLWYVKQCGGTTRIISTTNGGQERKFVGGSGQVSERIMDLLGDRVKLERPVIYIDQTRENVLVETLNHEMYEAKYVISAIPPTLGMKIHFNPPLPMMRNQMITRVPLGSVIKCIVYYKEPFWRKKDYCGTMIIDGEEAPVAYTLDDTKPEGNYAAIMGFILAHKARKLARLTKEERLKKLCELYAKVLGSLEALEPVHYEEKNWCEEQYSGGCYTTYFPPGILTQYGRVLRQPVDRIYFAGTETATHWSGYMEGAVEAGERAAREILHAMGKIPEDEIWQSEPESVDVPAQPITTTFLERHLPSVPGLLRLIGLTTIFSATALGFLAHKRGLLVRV

[5] = biological target: T2, Amine oxidase [flavin-containing] A (Homo sapiens, UniProt P21397); assay: Inhibition of MAO-A (unknown origin)
T2 sequence (P21397 whole entry): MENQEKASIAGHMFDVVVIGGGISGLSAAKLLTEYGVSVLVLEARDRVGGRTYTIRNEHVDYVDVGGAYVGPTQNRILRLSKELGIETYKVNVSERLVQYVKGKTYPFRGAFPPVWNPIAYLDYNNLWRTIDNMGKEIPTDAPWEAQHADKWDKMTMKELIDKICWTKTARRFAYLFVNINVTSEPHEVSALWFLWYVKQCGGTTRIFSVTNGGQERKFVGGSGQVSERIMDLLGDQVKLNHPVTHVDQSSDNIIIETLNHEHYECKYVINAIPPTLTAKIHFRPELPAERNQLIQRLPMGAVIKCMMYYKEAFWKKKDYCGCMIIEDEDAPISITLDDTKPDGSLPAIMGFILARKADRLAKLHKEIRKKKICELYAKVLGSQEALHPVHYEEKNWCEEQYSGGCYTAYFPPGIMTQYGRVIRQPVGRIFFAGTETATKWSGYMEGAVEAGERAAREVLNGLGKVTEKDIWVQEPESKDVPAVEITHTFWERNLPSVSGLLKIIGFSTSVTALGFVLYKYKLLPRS

[6] = biological target: T2, Amine oxidase [flavin-containing] A; assay: Binding affinity to MAO-A (unknown origin) assessed as inhibition constant
[7] = biological target: Amyloid-beta precursor protein (Homo sapiens) (UniProt P05067); assay: Inhibition of amyloid beta (unknown origin) aggregation at 25 uM relative to control
Amyloid-beta precursor protein (Homo sapiens), sequence (P05067 whole entry): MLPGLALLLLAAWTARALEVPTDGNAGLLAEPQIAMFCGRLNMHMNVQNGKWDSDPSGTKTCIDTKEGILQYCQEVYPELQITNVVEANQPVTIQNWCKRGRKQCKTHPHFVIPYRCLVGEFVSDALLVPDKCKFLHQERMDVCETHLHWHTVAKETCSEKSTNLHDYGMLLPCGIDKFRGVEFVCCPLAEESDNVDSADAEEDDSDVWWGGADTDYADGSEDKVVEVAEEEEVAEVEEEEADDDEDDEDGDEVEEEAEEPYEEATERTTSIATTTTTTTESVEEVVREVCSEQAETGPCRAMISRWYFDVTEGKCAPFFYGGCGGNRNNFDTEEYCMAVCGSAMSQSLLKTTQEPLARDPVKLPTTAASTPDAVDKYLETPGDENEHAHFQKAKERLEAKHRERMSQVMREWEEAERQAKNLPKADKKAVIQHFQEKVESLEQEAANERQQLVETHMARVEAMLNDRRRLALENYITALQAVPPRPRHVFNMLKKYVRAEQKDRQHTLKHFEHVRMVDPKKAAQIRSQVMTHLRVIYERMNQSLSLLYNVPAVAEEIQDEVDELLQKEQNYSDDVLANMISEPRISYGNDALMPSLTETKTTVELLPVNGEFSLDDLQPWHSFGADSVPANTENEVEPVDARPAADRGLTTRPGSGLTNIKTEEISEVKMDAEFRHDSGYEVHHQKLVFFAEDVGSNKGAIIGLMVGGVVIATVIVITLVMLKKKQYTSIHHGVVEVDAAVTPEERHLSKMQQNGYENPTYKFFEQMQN

[8] = biological target: T3, 5-hydroxytryptamine receptor 2C (Homo sapiens, UniProt P28335); assay: Binding affinity to 5-HT2C (unknown origin) assessed as inhibition constant
T3 sequence (P28335 whole entry): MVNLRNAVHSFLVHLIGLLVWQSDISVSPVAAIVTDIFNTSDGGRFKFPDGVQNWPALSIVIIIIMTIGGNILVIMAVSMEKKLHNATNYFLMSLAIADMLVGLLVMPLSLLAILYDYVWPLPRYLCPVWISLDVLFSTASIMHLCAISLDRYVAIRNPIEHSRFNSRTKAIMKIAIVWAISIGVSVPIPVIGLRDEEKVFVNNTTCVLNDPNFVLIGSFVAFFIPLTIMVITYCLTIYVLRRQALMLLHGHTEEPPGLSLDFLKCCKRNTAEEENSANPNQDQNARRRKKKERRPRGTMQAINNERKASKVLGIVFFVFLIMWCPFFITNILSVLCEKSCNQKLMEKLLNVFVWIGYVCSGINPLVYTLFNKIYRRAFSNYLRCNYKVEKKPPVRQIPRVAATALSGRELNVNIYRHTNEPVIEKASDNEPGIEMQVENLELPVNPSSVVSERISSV

[9] = biological target: 5-hydroxytryptamine receptor 5A (Homo sapiens, UniProt P47898); assay: Binding affinity to 5-HT5AR (unknown origin) assessed as inhibition constant
5-hydroxytryptamine receptor 5A, sequence (P47898 whole entry): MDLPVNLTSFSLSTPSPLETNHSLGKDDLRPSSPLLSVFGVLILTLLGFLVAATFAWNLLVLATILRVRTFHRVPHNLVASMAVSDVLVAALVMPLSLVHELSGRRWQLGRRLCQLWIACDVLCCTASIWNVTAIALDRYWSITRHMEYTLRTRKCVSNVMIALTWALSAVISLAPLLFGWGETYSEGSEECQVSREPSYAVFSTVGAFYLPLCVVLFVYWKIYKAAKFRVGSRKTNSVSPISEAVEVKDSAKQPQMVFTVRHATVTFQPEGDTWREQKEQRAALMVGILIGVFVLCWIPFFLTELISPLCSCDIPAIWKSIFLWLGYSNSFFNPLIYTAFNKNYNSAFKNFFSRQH

[10] = biological target: T4, 5-hydroxytryptamine receptor 2B (Homo sapiens, UniProt P41595); assay: Binding affinity to 5-HT2BR (unknown origin) assessed as inhibition constant
T4 sequence (P41595 whole entry): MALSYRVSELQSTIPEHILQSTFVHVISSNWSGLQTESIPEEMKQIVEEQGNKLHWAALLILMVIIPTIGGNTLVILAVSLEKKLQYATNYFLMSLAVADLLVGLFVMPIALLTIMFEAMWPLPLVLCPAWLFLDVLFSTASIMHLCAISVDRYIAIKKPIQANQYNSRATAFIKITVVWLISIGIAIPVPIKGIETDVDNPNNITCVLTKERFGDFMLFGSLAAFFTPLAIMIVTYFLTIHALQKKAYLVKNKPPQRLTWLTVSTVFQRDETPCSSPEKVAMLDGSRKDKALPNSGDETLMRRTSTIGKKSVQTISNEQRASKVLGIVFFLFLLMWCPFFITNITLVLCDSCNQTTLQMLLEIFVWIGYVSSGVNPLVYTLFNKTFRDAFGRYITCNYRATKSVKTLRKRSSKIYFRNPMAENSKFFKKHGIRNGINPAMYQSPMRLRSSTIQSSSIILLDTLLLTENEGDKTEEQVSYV

[11] = biological target: T4, 5-hydroxytryptamine receptor 2B; assay: Binding affinity to 5-HT2B (unknown origin) assessed as equilibrium binding constant
[12] = biological target: 5-hydroxytryptamine receptor 2B (Rattus norvegicus, UniProt P30994); assay: Displacement of [3H]-ketanserin from rat 5-HT2B expressed in mouse NIH/3T3 cells assessed as inhibition constant by Cheng-Prusoff equation analysis; format: cell-based
5-hydroxytryptamine receptor 2B (Rattus norvegicus, UniProt P30994), sequence (P30994 whole entry): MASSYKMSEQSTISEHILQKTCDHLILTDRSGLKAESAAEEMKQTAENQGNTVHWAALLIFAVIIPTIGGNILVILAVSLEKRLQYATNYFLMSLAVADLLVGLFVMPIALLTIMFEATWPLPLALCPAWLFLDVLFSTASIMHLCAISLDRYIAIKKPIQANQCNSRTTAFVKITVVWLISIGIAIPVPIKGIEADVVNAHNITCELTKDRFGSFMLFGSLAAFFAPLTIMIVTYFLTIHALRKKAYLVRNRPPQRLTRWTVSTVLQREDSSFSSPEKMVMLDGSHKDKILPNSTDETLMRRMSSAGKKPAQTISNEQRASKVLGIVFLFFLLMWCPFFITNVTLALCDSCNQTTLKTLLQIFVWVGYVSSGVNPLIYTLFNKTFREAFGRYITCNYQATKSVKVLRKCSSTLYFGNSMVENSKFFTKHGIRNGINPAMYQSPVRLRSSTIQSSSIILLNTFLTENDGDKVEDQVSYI

Acetylcholinesterase, sequence (P22303 whole entry): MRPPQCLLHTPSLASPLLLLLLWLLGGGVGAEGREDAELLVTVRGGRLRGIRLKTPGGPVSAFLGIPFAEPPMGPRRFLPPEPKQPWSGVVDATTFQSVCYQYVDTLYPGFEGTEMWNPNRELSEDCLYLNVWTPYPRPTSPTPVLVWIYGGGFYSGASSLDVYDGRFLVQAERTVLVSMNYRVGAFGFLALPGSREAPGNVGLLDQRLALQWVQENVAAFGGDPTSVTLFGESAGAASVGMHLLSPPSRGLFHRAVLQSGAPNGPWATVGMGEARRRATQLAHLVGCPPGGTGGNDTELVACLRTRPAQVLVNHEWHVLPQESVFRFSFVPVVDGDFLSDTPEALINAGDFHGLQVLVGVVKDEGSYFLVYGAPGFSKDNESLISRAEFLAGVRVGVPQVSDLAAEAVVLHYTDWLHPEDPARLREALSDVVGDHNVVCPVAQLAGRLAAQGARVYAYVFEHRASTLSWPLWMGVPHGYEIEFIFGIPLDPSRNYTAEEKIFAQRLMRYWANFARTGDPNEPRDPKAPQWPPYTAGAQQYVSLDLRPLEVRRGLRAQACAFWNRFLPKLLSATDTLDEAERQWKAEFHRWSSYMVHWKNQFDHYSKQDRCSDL

Compound: c1ccc2c(c1)[nH]c1c[n+](CCCCCCCCCCCC[n+]3ccc4c(c3)[nH]c3ccccc34)ccc12
IC50 (Acetylcholinesterase): 86000 nM
IC50 [1]: 1800 nM
IC50 (Cholinesterase): 1800 nM

Compound: Brc1cccc2[nH]c3c(c12)CCNC3
Ki [2]: < 180 nM

Compound: COc1ccc2c3cc[n+](C)c(C)c3n(C)c2c1
Ki [6]: 69 nM and 15 nM

Compound: COC(=O)C1=CN2CCc3c([nH]c4ccccc34)[C@@H]2C[C@H]1C1=CCOC1=O
IC50 [4]: 34000 nM

Compound: COc1ccc(CC2NCCc3c2[nH]c2cc(C)c(C)cc32)cc1OC (configuration not stated)
Kb [11]: < 0.3 nM and 0.08 nM
Ki [2]: 5 nM
Ki [12]: 0.2 nM

More lines, now with the values ahead:

IC50 (Histone deacetylase): 9.1 nM
IC50 [3]: 126 nM
Compound: O=C(CCCCCCN1CC(=O)N2[C@H](c3ccc(Cl)cc3)c3[nH]c4ccccc4c3C[C@@H]2C1=O)NO

IC50 [4]: 360 nM
IC50 [5]: 430 nM
Compound: CCCCn1c2cc(OCc3cn(Cc4ccccc4Cl)nn3)ccc2c2ccnc(C)c21

inhibition [7]: 93%
Compound: CCCc1ccc[n+](CC(=O)Nc2ccc3cc4c5[nH]c6ccccc6c5ccn4c(=O)c3c2)c1

Ki [8]: 170 nM
Ki [9]: 170 nM
Ki [10]: 170 nM
Compound: c1ccc2c(-c3nccc4c3[nH]c3ccccc34)c[nH]c2c1

IC50 (Histone deacetylase): 61 nM
IC50 [3]: 7 nM
Compound: O=C(CCCCCN1CC(=O)N2[C@H](c3ccc(Br)cc3)c3[nH]c4ccccc4c3C[C@@H]2C1=O)NO

Ki [8]: 200 nM
Ki [9]: 100 nM
Ki [10]: 100 nM
Compound: COc1ccc2[nH]c3c(-c4cn(C)c5ccccc45)nccc3c2c1

Reference: ChEMBL document CHEMBL5233266, “β-Carboline as a Privileged Scaffold for Multitarget Strategies in Alzheimer's Disease Therapy” (J Med Chem, 2021)
